Assay results reported in ChEMBL document CHEMBL1201862, “PubChem BioAssay data set” (2004).
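Compound exposure: 48 hours, 5 concentrations, 96-well plates. GI50 marks 50% less growth.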 The source made the active and inactive calls. No stated cut-off is given here; in the data, active = GI50 up to about 1.1 µM and inactive = higher.

How the values were obtained:
Test in all cases: growth of human tumour cells (NCI), 48 h
786-0 = system: 786-0
A498 = system: A498
CAKI-1 = system: CAKI-1
CCRF-CEM = system: CCRF-CEM
EKVX = system: EKVX
HCC 2998 = system: HCC 2998
HOP-62 = system: HOP-62
Hs-578T = system: Hs-578T
MCF7 = system: MCF7
MDA-MB-231 = system: MDA-MB-231
MDA-MB-435 = system: MDA-MB-435
MOLT-4 = system: MOLT-4
NCI-H522 = system: NCI-H522
NCI/ADR-RES = system: NCI/ADR-RES
OVCAR-8 = system: OVCAR-8
SF-295 = system: SF-295
SK-MEL-28 = system: SK-MEL-28
SK-MEL-2 = system: SK-MEL-2
SR = system: SR
UACC-257 = system: UACC-257

Structure (SMILES): O=[N+]([O-])c1cccc2nc3ccccc3c(NCCNCCO)c12
- GI50 (786-0): 0.00348 µM (active)
- GI50 (A498): 0.0121 µM (active)
- GI50 (CAKI-1): 0.0178 µM (active)
- GI50 (CCRF-CEM): 0.0158 µM (active)
- GI50 (EKVX): 0.00853 µM (active)
- GI50 (HCC 2998): 0.00217 µM (active)
- GI50 (HOP-62): 0.0169 µM (active)
- GI50 (Hs-578T): 0.0251 µM (active)
- GI50 (MCF7): 0.001 µM (active)
- GI50 (MDA-MB-231): 0.017 µM (active)
- GI50 (MDA-MB-435): 0.011 µM (active)
- GI50 (MOLT-4): 0.00402 µM (active)
- GI50 (NCI-H522): 0.00109 µM (active)
- GI50 (NCI/ADR-RES): 0.248 µM (active)
- GI50 (OVCAR-8): 0.00733 µM (active)
- GI50 (SF-295): 0.00425 µM (active)
- GI50 (SK-MEL-28): 0.047 µM (active)
- GI50 (SK-MEL-2): 0.00281 µM (active)
- GI50 (SR): 0.00112 µM (active)
- GI50 (UACC-257): 0.0154 µM (active)

Structure (SMILES): COC(=O)N/N=C(/CC1(O)C(=O)Nc2ccc([N+](=O)[O-])cc21)c1ccccc1 (stereo not given)
- GI50 (786-0): 25.4 µM (inactive)
- GI50 (A498): 14 µM (inactive)
- GI50 (CAKI-1): 75.7 µM (inactive)
- GI50 (CCRF-CEM): 29.6 µM (inactive)
- GI50 (EKVX): > 54.1 µM (inactive)
- GI50 (HCC 2998): 67.1 µM (inactive)
- GI50 (HOP-62): 31 µM (inactive)
- GI50 (Hs-578T): 20.8 µM (inactive)
- GI50 (MCF7): 1.19 µM (inactive)
- GI50 (MDA-MB-231): 18.3 µM (inactive)
- GI50 (MDA-MB-435): 20.8 µM (inactive)
- GI50 (MOLT-4): 24.5 µM (inactive)
- GI50 (NCI-H522): 43.9 µM (inactive)
- GI50 (NCI/ADR-RES): 21.8 µM (inactive)
- GI50 (OVCAR-8): 29.4 µM (inactive)
- GI50 (SF-295): 17.5 µM (inactive)
- GI50 (SK-MEL-28): 23.2 µM (inactive)
- GI50 (SK-MEL-2): 31.2 µM (inactive)
- GI50 (SR): 29.9 µM (inactive)
- GI50 (UACC-257): 42.4 µM (inactive)

Structure (SMILES): COc1ccc2c3c1OC1C(F)C=CC4(O)C(C2)NCCC314 (stereo not given)
- GI50 (786-0): 1.2 µM (inactive)
- GI50 (A498): 4.47 µM (inactive)
- GI50 (CAKI-1): 0.962 µM (active)
- GI50 (CCRF-CEM): 0.348 µM (active)
- GI50 (EKVX): 2.49 µM (inactive)
- GI50 (HCC 2998): 3.18 µM (inactive)
- GI50 (HOP-62): 2.11 µM (inactive)
- GI50 (Hs-578T): 2.62 µM (inactive)
- GI50 (MCF7): 1.69 µM (inactive)
- GI50 (MDA-MB-231): 3.27 µM (inactive)
- GI50 (MDA-MB-435): 1.52 µM (inactive)
- GI50 (MOLT-4): 0.887 µM (active)
- GI50 (NCI-H522): 0.407 µM (active)
- GI50 (NCI/ADR-RES): 3.94 µM (inactive)
- GI50 (OVCAR-8): 1.94 µM (inactive)
- GI50 (SF-295): 9.18 µM (inactive)
- GI50 (SK-MEL-28): 3.07 µM (inactive)
- GI50 (SK-MEL-2): 2.38 µM (inactive)
- GI50 (SR): 0.92 µM (active)
- GI50 (UACC-257): 11.1 µM (inactive)

Structure (SMILES): COC(=O)c1cc2c(cc1CC(Cc1ccc3c(c1)CCC3)C(=O)OC)CCC2 (stereo not given)
- GI50 (786-0): 51.4 µM (inactive)
- GI50 (A498): > 100 µM (inactive)
- GI50 (CAKI-1): > 100 µM (inactive)
- GI50 (CCRF-CEM): 29.1 µM (inactive)
- GI50 (EKVX): 27 µM (inactive)
- GI50 (HCC 2998): 34.5 µM (inactive)
- GI50 (HOP-62): > 100 µM (inactive)
- GI50 (Hs-578T): 66.2 µM (inactive)
- GI50 (MCF7): 24.8 µM (inactive)
- GI50 (MDA-MB-231): 70.6 µM (inactive)
- GI50 (MDA-MB-435): 31 µM (inactive)
- GI50 (MOLT-4): 26.9 µM (inactive)
- GI50 (NCI-H522): 22.2 µM (inactive)
- GI50 (NCI/ADR-RES): 57.5 µM (inactive)
- GI50 (OVCAR-8): > 100 µM (inactive)
- GI50 (SF-295): 84.5 µM (inactive)
- GI50 (SK-MEL-28): 84.1 µM (inactive)
- GI50 (SK-MEL-2): 44.1 µM (inactive)
- GI50 (SR): 11 µM (inactive)
- GI50 (UACC-257): 13.7 µM (inactive)
